Reference: US20170354148A1, “SAFENED HERBICIDAL COMPOSITIONS CONTAINING HALAUXIFEN AND METHODS OF USE THEREOF IN BRASSICA SPECIES” (Dow AgroSciences LLC, priority 2016, published 2017)
Values joined by “and” are separate entries in the source; they are usually repeats but may differ in a detail not shown here. Identical values can stand only once.

Tests used:
[1] = system: rutabaga (Brassica napus var. napobrassica, BRSNA); assay: Example 5 greenhouse trials, postemergence visual injury; details: for % Visual Injury Obs / Visual Injury Obs: BRSNA
[2] = system: turnip or Polish canola (Brassica rapa, BRSRR); assay: as above; details: for % Visual Injury Obs / Visual Injury Obs: BRSRR
[3] = system: Spring Argentine canola (Brassica napus, BRSNS); assay: Example 3 field trials (Canada), postemergence crop safety, visual phytotoxicity
[4] = halauxifen-methyl alone 2.5 g ai/ha
[5] = halauxifen-methyl alone 5 g ai/ha
[6] = halauxifen-methyl alone 10 g ai/ha
[7] = BRSNS, trial 1, 17DAA1, 0.62 g ae/ha
[8] = BRSNS, trial 1, 17DAA1, 1.25 g ae/ha
[9] = BRSNS, trial 1, 17DAA1, 2.5 g ae/ha
[10] = BRSNS, trial 1, 17DAA1, 5 g ae/ha
[11] = BRSNS, trial 1, 32DAA1, 0.62 g ae/ha

## COC(=O)c1nc(-c2ccc(Cl)c(OC)c2F)cc(N)c1Cl [Halauxifen-methyl, methyl 4-amino-3-chloro-6-(4-chloro-2-fluoro-3-methoxyphenyl)-2-pyridineccarboxylate]
[1]; 2.5 g ai/ha alone, 20-22 d
  % Visual Injury Obs: 5%
[1]; 5 g ai/ha alone, 20-22 d
  % Visual Injury Obs: 5%
[1]; 10 g ai/ha alone, 20-22 d
  % Visual Injury Obs: 10%
[1]; halauxifen-methyl 2.5 g ai/ha
  % Visual Injury Obs: 5%
  Visual Injury Obs: 5%
[1]; halauxifen-methyl 5 g ai/ha
  % Visual Injury Obs: 5%
  Visual Injury Obs: 5%
[1]; halauxifen-methyl 10 g ai/ha
  % Visual Injury Obs: 10%
  Visual Injury Obs: 10%
[1]; [4]
  Percent (%) Visual Injury BRSNA Obs: 5%
[1]; [5]
  Percent (%) Visual Injury BRSNA Obs: 5%
[1]; [6]
  Percent (%) Visual Injury BRSNA Obs: 10%
[2]; 2.5 g ai/ha alone, 20-22 d
  % Visual Injury Obs: 5%
[2]; 5 g ai/ha alone, 20-22 d
  % Visual Injury Obs: 6%
[2]; 10 g ai/ha alone, 20-22 d
  % Visual Injury Obs: 10%
[2]; halauxifen-methyl 2.5 g ai/ha
  % Visual Injury Obs: 5%
  Visual Injury Obs: 5%
[2]; halauxifen-methyl 5 g ai/ha
  % Visual Injury Obs: 6%
  Visual Injury Obs: 6%
[2]; halauxifen-methyl 10 g ai/ha
  % Visual Injury Obs: 10%
  Visual Injury Obs: 10%
[2]; [4]
  Percent (%) Visual Injury BRSRR Obs: 5%
[2]; [5]
  Percent (%) Visual Injury BRSRR Obs: 6%
[2]; [6]
  Percent (%) Visual Injury BRSRR Obs: 10%
[3]; BRSNS, 7DAAA, 5 g ae/ha (Tables 10, 11)
  Mean % Visual Injury: 0.8%
[3]; BRSNS, 15DAAA, 5 g ae/ha (Tables 10, 11)
  Mean % Visual Injury: 50.5%
[3]; BRSNS, 27DAAA, 5 g ae/ha (Tables 10, 11)
  Mean % Visual Injury: 48.5%
[3]; BRSNS, 57DAAA, 5 g ae/ha (Tables 10, 11)
  Mean % Visual Injury: 30.3%
[3]; BRSNS, trial 1, 7DAA1, 1.25 g ae/ha
  Mean % Visual Injury: 1.8%
[3]; BRSNS, trial 1, 7DAA1, 2.5 g ae/ha
  Mean % Visual Injury: 1.8%
[3]; BRSNS, trial 1, 7DAA1, 5 g ae/ha
  Mean % Visual Injury: 2.0%
[3]; [7]
  Mean % Visual Epinasty: 2.5%
  Mean % Visual Injury: 2.5%
[3]; [8]
  Mean % Visual Epinasty: 2.5%
  Mean % Visual Injury: 2.5%
[3]; [9]
  Mean % Visual Epinasty: 3.0%
  Mean % Visual Injury: 3.3%
[3]; [10]
  Mean % Visual Epinasty: 2.5%
  Mean % Visual Injury: 3.3%
[3]; [11]
  Mean % Visual Epinasty: 5.0%
  Mean % Visual Injury: 8.3%
[3]; BRSNS, trial 1, 32DAA1, 1.25 g ae/ha
  Mean % Visual Injury: 13.0%
[3]; BRSNS, trial 1, 49DAA1, 0.62 g ae/ha
  Mean % Visual Injury: 0.3%
[3]; BRSNS, trial 1, 49DAA1, 1.25 g ae/ha
  Mean % Visual Injury: 2.3%
[3]; BRSNS, trial 1, 49DAA1, 2.5 g ae/ha
  Mean % Visual Injury: 2.5%
[3]; BRSNS, trial 2, 8DAA1, 5 g ae/ha
  Mean % Visual Injury: 4.0% and 3.0% and 2.0%
[3]; BRSNS, trial 2, 8DAA1, 10 g ae/ha
  Mean % Visual Injury: 4.8% and 3.3% and 2.8% and 2.0%
[3]; BRSNS, trial 2, 17DAA1, 10 g ae/ha
  Mean % Visual Injury: 35.5%
[3]; BRSNS, trial 2, 35DAA1, 10 g ae/ha
  Mean % Visual Epinasty: 4.0% and 2.8%
[3]; BRSNS, trial 2, 48DAA1, 5 g ae/ha
  Mean % Visual Injury: 1.8% and 1.5%
[3]; BRSNS, trial 3, 6DAA1, 5 g ae/ha
  Mean % Visual Epinasty: 9.5%
[3]; BRSNS, trial 3, 6DAA1, 10 g ae/ha
  Mean % Visual Epinasty: 8.8%
[3]; BRSNS, trial 3, 23DAA1, 2.5 g ae/ha
  Mean % Visual Epinasty: 38.8%
[3]; BRSNS, trial 3, 23DAA1, 5 g ae/ha
  Mean % Visual Epinasty: 50.0%
[3]; BRSNS, trial 3, 33DAA1, 5 g ae/ha
  Mean % Visual Injury: 6.5% and 2.0%
[3]; BRSNS, trial 3, 33DAA1, 10 g ae/ha
  Mean % Visual Injury: 5.5%
[3]; BRSNS, trial 3, 69DAA1, 2.5 g ae/ha
  Mean % Visual Injury: 3.0%
[3]; BRSNS, trial 3, 69DAA1, 5 g ae/ha
  Mean % Visual Injury: 4.0%
[3]; BRSNS, trial 4, 8DAA1, 5 g ae/ha
  Mean % Visual Injury: 8.0%
[3]; BRSNS, trial 4, 15DAA1, 0.62 g ae/ha
  Mean % Visual Injury: 3.5%
[3]; BRSNS, trial 4, 15DAA1, 2.5 g ae/ha
  Mean % Visual Injury: 14.3%
[3]; BRSNS, trial 4, 17DAA1, 5 g ae/ha
  Mean % Visual Epinasty: 23.3%
[3]; BRSNS, trial 4, 41DAA1, 5 g ae/ha
  Mean % Visual Injury: 8.0%
[3]; BRSNS, trial 4, 82DAA1, 5 g ae/ha
  Mean % Visual Injury: 6.0%
[3]; BRSNS, trial 5, 7DAA1, 5 g ae/ha
  Mean % Visual Injury: 7.5%
[3]; BRSNS, trial 5, 7DAA1, 10 g ae/ha
  Mean % Visual Injury: 9.0% and 3.5% and 2.0% and 1.5%
[3]; BRSNS, trial 5, 15DAA1, 5 g ae/ha
  Mean % Visual Injury: 27.0%
[3]; BRSNS, trial 5, 15DAA1, 10 g ae/ha
  Mean % Visual Injury: 9.0% and 2.5% and 1.0%
[3]; BRSNS, trial 5, 36DAA1, 10 g ae/ha
  Mean % Visual Injury: 6.0%
[3]; BRSNS, trial 5, 79DAA1, 10 g ae/ha
  Mean % Visual Injury: 3.0% and 4.5% and 5.3%
[3]; BRSNS, trial 6, 6DAA1, 5 g ae/ha
  Mean % Visual Injury: 24.5%
[3]; BRSNS, trial 6, 6DAA1, 10 g ae/ha
  Mean % Visual Injury: 27.5%
[3]; BRSNS, trial 6, 23DAA1, 2.5 g ae/ha
  Mean % Visual Injury: 38.8%
[3]; BRSNS, trial 6, 23DAA1, 5 g ae/ha
  Mean % Visual Injury: 52.5%
[3]; BRSNS, trial 6, 33DAA1, 2.5 g ae/ha
  Mean % Visual Injury: 22.5%
[3]; BRSNS, trial 6, 33DAA1, 5 g ae/ha
  Mean % Visual Injury: 43.0%
[3]; BRSNS, trial 6, 59DAA1, 2.5 g ae/ha
  Mean % Visual Injury: 28.5%
[3]; BRSNS, trial 7, 17DAA1, 5 g ae/ha
  Mean % Visual Injury: 45.0%
[3]; BRSNS, trial 7, 27DAA1, 5 g ae/ha
  Mean % Visual Injury: 34.0%
[3]; BRSNS, trial 8, 7DAA1, 5 g ae/ha
  Mean % Visual Injury: 0.8%
[3]; BRSNS, trial 8, 57DAA1, 0.62 g ae/ha
  Mean % Visual Injury: 4.8%
[3]; BRSNS, trial 9, 27DAA1, 5 g ae/ha
  Mean % Visual Injury: 6.8%
[3]; BRSNS, trial 9, 60DAA1, 10 g ae/ha
  Mean % Visual Injury: 22.5% and 12.5%
[3]; Table 14, 7DAAA, halauxifen-methyl 5, quinclorac 101 g ae/ha, alone or mixed
  Mean % Visual Injury: 0.8%
[3]; Table 14, 15DAAA, halauxifen-methyl 5, quinclorac 101 g ae/ha, alone or mixed
  Mean % Visual Injury: 50.5%
[3]; Table 14, 27DAAA, halauxifen-methyl 5, quinclorac 101 g ae/ha, alone or mixed
  Mean % Visual Injury: 48.5%
[3]; Table 14, 57DAAA, halauxifen-methyl 5, quinclorac 101 g ae/ha, alone or mixed
  Mean % Visual Injury: 30.3%
[3]; Table 15, 7DAAA, halauxifen-methyl 5, clopyralid-olamine 150, quinclorac 101 g ae/ha, alone or mixed
  Mean % Visual Injury: 0.8%
[3]; Table 15, 15DAAA, halauxifen-methyl 5, clopyralid-olamine 150, quinclorac 101 g ae/ha, alone or mixed
  Mean % Visual Injury: 50.5%
